“And” between values parts separate entries of the source, which are not always exact repeats. Equal entries are not always repeated.

Data set [1] in a line: Water stability under applied voltage (square wave voltammetry, oxidation potential). It counts as physicochemical. Particulars: for Oxidation potential: SWV, 0.5 mM in THF:water=90:10, gold electrode, Ag wire reference, ferrocene reference substance, None = no oxidation potential, more stable than 1.3 V (THF oxidized); for water stability under applied voltage (in words): judged from whether an oxidation potential is observed. On the procedure: Water Stability Under Applied Voltage
Water stability against voltage of each of the compounds (1) to (9) synthesized in Examples and Comparative Examples was evaluated by the measurement shown below.
Measurement: square wave voltammetry (SWV)
Action electrode: gold electrode
Counter electrode: platinum black electrode
Reference electrode: Ag wire
Supporting electrolyte: tetrabutylammonium hexafluorophosphate (manufactured by FUJIFILM Wako Pure Chemical Corporation)
Reference substance: ferrocene
The compound (1) was adjusted to a concentration of 0.5 mM using a mixed solvent of THF:water=90:10, and nitrogen bubbling was carried out for 10 minutes to produce a measurement sample.
Next, a measurement was performed under the above-described analysis conditions to observe an oxidation potential.
Oxidation potentials of the compounds (2) to (9) were measured under the same conditions.

Data set [2] is described as follows: Water stability over time without applied voltage (HPLC residual rate). The class given is physicochemical. To be noted: for Residual rate (%): aqueous mixed solution with NIKKOL HCO-40, allowed to stand at 25° C. for 24 hours, HPLC area after 24 hours ÷ area immediately after preparation × 100; for water stability over time (in words): without applied voltage, 25° C., 24 hours, judged from residual rate. As for the experimental part: Water Stability Over Time without Applied Voltage
To 1.0 part by mass of each of the compounds (1) to (9) synthesized in Examples and Comparative Examples, 1000 parts by mass of NIKKOL HCO-40 (Nikko Chemicals Co., Ltd.) and 10000 parts by mass of acetone were mixed.
Next, after removing the acetone using an evaporator at a temperature of 40° C., 10000 parts of water was added thereto to prepare a uniform mixed solution 1. The mixed solution 1 was allowed to stand at 25° C. for 24 hours.
Immediately after the preparation of the mixed solution 1 and after allowing the mixed solution 1 to stand for 24 hours, an HPLC measurement was carried out under the following analysis conditions, and a residual rate in the water stability test over time was calculated using the following expression.
(Area value after standing for 24 hours)÷(Area value immediately after preparation)×100=Residual rate (%)
SCL-10AVP manufactured by Shimadzu Corporation
Eluent: single eluent prepared by adding 0.2% by volume of each of acetic acid and triethylamine to a mixed solution obtained by mixing tetrahydrofuran (THF) and water at a ratio of 60:40

With `Cc1cc(C)c(C2C(=O)Oc3c2cc(C(C)(C)C)cc3C(C)(C)C)c(C)c1` (stereo not drawn) [Compound (1)], the Oxidation potential entry in data set [1] is listed as “None”. Besides, the “Residual rate (%)” value in data set [2] is on record as 100%.

With `COc1cc(OC)c(C2C(=O)Oc3c2cc(C(C)(C)C)cc3C(C)(C)C)c(OC)c1` (stereo not drawn) [Compound (2)], the Oxidation potential result in data set [1] is reported as “None”. Further, in data set [2], the “Residual rate (%)” value is 95%.

Turning to `Cc1cc(C)c(C2C(=O)Oc3c2cc(C)cc3C(C)(C)C)c(C)c1` (stereo not drawn) [Compound (3)], the Oxidation potential entry in data set [1] is given as “None”. Moreover, the “Residual rate (%)” value in data set [2] is recorded as 90%.

As for `COc1cc(OC)c(C2C(=O)Oc3c2cc(C)cc3C(C)(C)C)c(OC)c1` (stereo not drawn) [Compound (4)], the Oxidation potential result in data set [1] is on record as “None”. Also, in data set [2], the “Residual rate (%)” value stood at 95%.

On to `Cc1ccc(C2C(=O)Oc3c2cc(C(C)(C)C)cc3C(C)(C)C)cc1C` (stereo not drawn) [Compound (5)], for which the Oxidation potential entry in data set [1] is reported as “None”. For the same compound, in data set [2], the “Residual rate (%)” value is reported as 0% and the “water stability over time (in words)” value is “deteriorated”.

Regarding `Cc1c(C)c(C)c(C2C(=O)Oc3c2cc(C(C)(C)C)cc3C(C)(C)C)c(C)c1C` (stereo not drawn) [Compound (6)], in data set [1], the Oxidation potential result is “None”. Further, in data set [2], the “Residual rate (%)” value came to 10% and the “water stability over time (in words)” value was “still deteriorated”.

Turning to `CCCCCCCCOc1ccc(C2C(=O)Oc3c2cc(C(C)(C)C)cc3C(C)(C)C)cc1` (stereo not drawn) [Compound (7)], the Oxidation potential result in data set [1] was “None”. In data set [2], the “Residual rate (%)” value amounted to 0% and the “water stability over time (in words)” value is on record as “deteriorated”.

For `Cc1c(C(C)(C)C)cc(C(C)(C)C)c(O)c1C1C(=O)Oc2c1cc(C(C)(C)C)cc2C(C)(C)C` (stereo not drawn) [Compound (8)], in data set [1], the Oxidation potential is 0.65 V and 1.00 V and 1.15 V; the “water stability under applied voltage (in words)” value is listed as “low”. The “Residual rate (%)” value in data set [2] is given as 0%.

Consider `CC(C)(C)c1cc(C2C(=O)Oc3c2cc(C(C)(C)C)cc3C(C)(C)C)c(O)c(C(C)(C)C)c1` (stereo not drawn) [Compound (9)], for which the “water stability under applied voltage (in words)” value in data set [1] is reported as “low”.
